Test results from PMC8880313, “Discovery of Novel Andrographolide Derivatives as Antiviral Inhibitors against Human Enterovirus A71” (Pharmaceuticals, 2022).

Columns and labels:
CV-A16 = test: Post-treatment assay, antiviral spectrum; format: cell-based, Coxsackievirus A16
Description: We were also interested in the antiviral potential of ZAF-47 against other Enteroviruses. As such, we performed post-treatment assay on RD cells infected with other Enteroviruses such as CV-A16, CV-A6, Echo7, CV-B5, CV-A24 and EV-D68.
To determine the inhibitory profiles of the hits, post treatment assay was performed. Seeded 24-well plates, with 1.5 × 10^5 RD cells per well, were incubated overnight at 37 °C with 5% CO2. The seeded cells were infected with EV-A71 (100 µL per well, MOI = 1) for 1 h at 37 °C with 5% CO2 and then rinsed with 1 mL of PBS twice. […]
Measurement of the viral titres from collected supernatants was derived from viral plaque assays. To do this, 24-well plates, seeded with 2.4 × 10^5 RD cells per well, were used in plaque assays for EV-A71, EV-D68, Echo7, CV-A6, CV-A16 and CV-A24 while 24-well plates, seeded with 1.2 × 10^5 Vero cells per well, were used in plaque assays for CV-B5. Seeded cells were incubated overnight at 37 °C with 5% CO2. Viral supernatants were diluted from 10^−1 to 10^−7 in reduced serum DMEM before infecting the cells with a volume of 100 µL for 1 h at 37 °C with 5% CO2 (33 °C instead for EV-D68). Cells were rinsed twice with PBS before overlaying with 1 mL of reduced serum DMEM containing 0.5% agarose (Vivantis, Shah Alam, Malaysia). […] Subsequent formation of viral plaques was counted manually to quantify the viral titre in PFU/mL […]

[1] = system: replication-competent EV-A71 RNA replicon; test: Nano-luciferase reporter assay, replication-competent replicon; format: cell-based, human enterovirus A71 (EV-A71); details: RD cells, 12 h; ZAF-47 different concentrations, GuHCl 1 mM
Description: To identify specifically which of these two intrinsically linked processes that ZAF-47 inhibits, we transfected RD cells with EV-A71 RNA replicons that were either replication-competent or replication-defective and subsequently treated them with different concentrations of ZAF-47 for 12 h before detecting for luminescence. Both forms of replicons were previously established and validated. The replication-competent replicon is capable of self-replicating as it contains an intact 3D region that encodes for 3D polymerase (3D^pol) responsible for RNA replication (Figure 4c). […] In contrast, the replication-defective replicon contains a 3D region with 159 nucleotide deletion which would produce a non-functional 3D protein and impair RNA replication (Figure 4c). As such, cells containing the replication-defective replicon express luciferase upon IRES translation of the original replicons only. The transfected cells were also treated with negative control, DMSO and positive controls, guanidine hydrochloride (GuHCl) and cycloheximide (CHX), a RNA replication-specific inhibitor [50] and a general translation inhibitor [51] respectively.
Seeded 96-well plates, with 2 × 10^4 RD cells per well, were incubated overnight at 37 °C with 5% CO2. […]

RD cells = test: Cell viability assay (alamarBlue); format: cell-based, human; details: 10 µM, 12 h
Description: (§1) Firstly, we performed cell viability assay to evaluate the cytotoxicity profile of the 19 hits. Cells seeded overnight were treated with the hit compounds at 10 µM. […] Anti-EV-A71 activity of AGP-253 had been illustrated and discussed previously. We were particularly interested in ZAF-46 and ZAF-47 as they belonged to the same series bearing novel 14-quinolinoxy and 17-hydro-8,9-olefin modifications (Figure 2b) that could potentially open up new targets for EV-A71 therapeutics. Additional cell viability assays were performed for ZAF-46 and ZAF-47 at different concentrations to identify the low cytotoxic concentrations for downstream post-treatment assays. For post-treatment assays, cells seeded overnight were infected with EV-A71 and subsequently treated with ZAF-46 and ZAF-47 at different concentrations. […] Treatment with ZAF-46 led to 1.4 log reduction at 10 µM and 2.4 log reduction at 20 µM (Figure 2c) while treatment with ZAF-47 led to 0.8 log reduction at 5 µM, 1.1 log reduction at 10 µM and 2.1 log reduction at 20 µM (Figure 2d). CC50 and IC50 for both compounds were determined and used to derive their SI (Table 2). ZAF-47 was selected for further downstream analysis due to its higher SI value which indicate higher pharmacological value for clinical use.
(§2) To determine the cytotoxicity profiles of the hits, cell viability assay was performed. Seeded 96-well plates, with 2 × 10^4 RD cells per well, were incubated overnight at 37 °C with 5% CO2. Different concentrations of drug hits, diluted by reduced serum DMEM, were used to treat the seeded cells for 12 h at 37 °C with 5% CO2. Reduced serum DMEM, was employed as the negative control and 0.1% DMSO as the vehicle control for this step. Subsequently, the supernatant was replaced with alamarBlue^TM Cell Viability Reagent (Thermo Fisher Scientific, Waltham, MA, USA) (100 µL), diluted 10-fold in reduced serum DMEM, and incubated for 3 h at 37 °C with 5% CO2. Fluorescence intensity in each well was measured at 570 nm excitation wavelength and 600 nm emission wavelength in each well by the Infinite^TM 200 series microplate reader (Tecan, Männedorf, Switzerland) and normaliszd with the negative control to determine the relative cell viability.

[2] = Cell viability assay (alamarBlue); format: cell-based, human; details: human, RD cells
Description: as §1, §2

Structure (SMILES): CC(=O)OC[C@]1(C)C(=O)CC[C@@]2(C)C(C/C=C3/C(=O)OC[C@@H]3Oc3cccc4cccnc34)=C(C)CC[C@@H]21 [ZAF-47, (14β)-(8′-Quinolinoxy)-3-ketone-9-dehydro-17-hydro-19-acetoxy–andrographolide]
- viral titre (CV-A16; 10 µM, CV-A16-infected RD cells): reducing the viral titres of the above-listed enteroviruses significantly
- IC50 (CV-A16; CVA16, CV-A16, Enterovirus A, drug treatment duration 16 h, RD cells): 1.38 µM
- luminescence, replication-competent replicon [1]: significant decrease in luminescence in a dose-dependent manner
- cytotoxicity (RD cells): low cytotoxicity
- CC50 at 12 h [2]: 29.6 µM
